Measurements as given in patent US20210207064A1, “COMPOUND FOR RESTORING CONTAMINATED SOIL OR CONTAMINATED WATER” (FNG RESEARCH CO., LTD., priority 2018, published 2021).

Assays:
[1] = Heavy metal removal ability test in contaminated soil around a factory (WAK-Me test kit); details: 1.0 wt % aqueous solution, colour comparison test kit
Procedure: The contaminated soil around the factory in the industrial complex was collected, pulverized, and meshed to prepare fine particles of soil samples.
Each 3 ml of aqueous solutions for restoring soil was added to soil samples and mixed for 5 minutes.

[2] = Formaldehyde (formalin) removing ability test (GC); details: 2.0% formaldehyde solution, 3 molar equivalents of compound, room temperature; for Formaldehyde GC Area, 30 min: after 30 min; for Formaldehyde GC Area, 180 min: after 180 min; for Formaldehyde GC Area, Initial: initial state
[3] = Heavy metal removal ability test in contaminated soil (ICP-MS), nickel; details: for Nickel (Ni) Adsorption amount: contaminated soil; for Nickel (Ni) Adsorption rate: relative to EDTA control
Procedure: (§1) (1) Preparation of Soil Contaminated with Heavy Metal
(§2) After collecting and pulverizing uncontaminated soil, fine particles obtained by using a mesh were mixed with the aqueous heavy metal solution to prepare soil samples contaminated with heavy metals.
(§3) Each 3 ml of the prepared aqueous solution was added to a soil sample contaminated with heavy metals and mixed for 5 minutes.
(§4) 50 ml of distilled water was added to the contaminated soil mixed with the aqueous solution for restoring soil, stirred for 20 minutes, and settled for 1 hour, and a supernatant was prepared as a sample solution.
(§5) The prepared sample solution was analyzed for the heavy metal component using an Inductively Coupled Plasma Mass Spectrometer (ICP-MS) (Xseries™ 2, Thermo Fisher Scientific, UK).
(§6) Adsorption rate of heavy metals (%)=(Adsorption amount of Embodiment/Adsorption amount of Control)×100 Equation 1

[4] = tested on: human skin; experiment: Skin irritation test of active ingredient (patch method, CTFA guidelines); type: in vivo; details: 24 h patch; for Test result (number of subject) (+) / Test result (number of subject) (++) / Test result (number of subject) (±) / Test result (number of subject) (−): 20 people; for Test result (number of subject) (+): (+) apparent reddening; for Test result (number of subject) (++): (++) more reddened and swollen; for Test result (number of subject) (±): (±) slightly reddish; for Test result (number of subject) (−): (−) no erythema
Procedure: A filter paper disk was placed in an 8 mm diameter, 10 panels of pin chamber.
After 24 hours, the pin chamber was removed, and skin conditions were visually observed. The degree and grade for skin irritation were calculated according to the following Equation 2, and the results are shown in Table 4 below.
[Criteria for Skin Irritation]
(−): No erythema or particularly no symptoms; (±): slightly reddish than the periphery; (+): Apparent reddening than periphery; (++): More reddened and swollen than periphery.
[Grade for Skin Irritation]
Degree of irritation 0-0.1: Grade I (unstimulated);
Degree of irritation 0.11-0.3: Grade II (weakly stimulated);
Degree of irritation 0.31-0.5: Grade III (moderately stimulated);
Degree of irritation 0.51 or more: Grade IV (strongly stimulated)

[5] = Heavy metal removal ability test in contaminated soil (ICP-MS), arsenic; details: for Arsenic (As) Adsorption amount: contaminated soil; for Arsenic (As) Adsorption rate: relative to EDTA control
Procedure: as §1, §2, §3, §4, §5, §6

[6] = Heavy metal removal ability test in contaminated soil (ICP-MS), cadmium; details: for Cadmium (Cd) Adsorption amount: contaminated soil; for Cadmium (Cd) Adsorption rate: relative to EDTA control
Procedure: as §1, §2, §3, §4, §5, §6

Compound | Total amount (Cu, Zn, Mn, Ni, Cd) [1] | Formaldehyde GC Area, 30 min [2] | Formaldehyde GC Area, 180 min [2] | Formaldehyde GC Area, Initial [2] | Nickel (Ni) Adsorption amount ([3]; content 0.5% aqueous solution) | Nickel (Ni) Adsorption rate ([3]; content 0.5%) | Nickel (Ni) Adsorption amount ([3]; content 1.0% aqueous solution) | Nickel (Ni) Adsorption rate ([3]; content 1.0%) | Nickel (Ni) Adsorption amount ([3]; content 2.0% aqueous solution) | Nickel (Ni) Adsorption rate ([3]; content 2.0%) | Test result (number of subject) (+) ([4]; content 0.1 wt %) | Test result (number of subject) (++) ([4]; content 0.1 wt %) | Test result (number of subject) (±) ([4]; content 0.1 wt %) | Test result (number of subject) (−) ([4]; content 0.1 wt %) | Degree of irritation ([4]; content 0.1 wt %) | Grade for skin irritation ([4]; content 0.1 wt %) | Test result (number of subject) (+) ([4]; content 0.5 wt %) | Test result (number of subject) (++) ([4]; content 0.5 wt %) | Test result (number of subject) (±) ([4]; content 0.5 wt %) | Test result (number of subject) (−) ([4]; content 0.5 wt %) | also measured
O=C(O)c1cncc(N2CCCN(c3cncc(C(=O)O)c3)CCN(c3cncc(C(=O)O)c3)CCCN(c3cncc(C(=O)O)c3)CC2)c1 [Embodiment 11, 5,5′,5″,5′″-(1,4,8,11-tetraazacyclotetradecane-1,4,8,11-tetrayl)tetranicotinic Acid] | ≤5 ppm | 0.174 mAU*min | 0 mAU*min | 0.305 mAU*min | 79 ppm | 161% | 88 ppm | 180% | 93 ppm | 190% | 0 | 0 | 0 | 20 | 0 | I (Degree of irritation 0-0.1: Grade I (unstimulated)) | 0 | 0 | 0 | 20 | Degree of irritation ([4]; content 0.5 wt %): 0; Grade for skin irritation ([4]; content 0.5 wt %): I (Degree of irritation 0-0.1: Grade I (unstimulated)); Test result (number of subject) (+) ([4]; content 1.0 wt %): 0; Test result (number of subject) (++) ([4]; content 1.0 wt %): 0; Test result (number of subject) (±) ([4]; content 1.0 wt %): 2; Test result (number of subject) (−) ([4]; content 1.0 wt %): 18; Degree of irritation ([4]; content 1.0 wt %): 0.10; Grade for skin irritation ([4]; content 1.0 wt %): I (Degree of irritation 0-0.1: Grade I (unstimulated)); Arsenic (As) Adsorption amount ([5]; content 0.5% aqueous solution): 38 ppm; Arsenic (As) Adsorption rate ([5]; content 0.5%): 152%; Arsenic (As) Adsorption amount ([5]; content 1.0% aqueous solution): 41 ppm; Arsenic (As) Adsorption rate ([5]; content 1.0%): 164%; Arsenic (As) Adsorption amount ([5]; content 2.0% aqueous solution): 47 ppm; Arsenic (As) Adsorption rate ([5]; content 2.0%): 188%; Cadmium (Cd) Adsorption amount ([6]; content 0.5% aqueous solution): 59 ppm; Cadmium (Cd) Adsorption rate ([6]; content 0.5%): 144%; Cadmium (Cd) Adsorption amount ([6]; content 1.0% aqueous solution): 66 ppm; Cadmium (Cd) Adsorption rate ([6]; content 1.0%): 161%; Cadmium (Cd) Adsorption amount ([6]; content 2.0% aqueous solution): 70 ppm; Cadmium (Cd) Adsorption rate ([6]; content 2.0%): 171%
O=C(O)CN1CCN(CC(=O)O)CCN(CC(=O)O)CCN(CC(=O)O)CC1 [Embodiment 5, 2,2′,2″,2′″-(1,4,7,10-tetraazacyclododecane-1,4,7,10-tetrayl)tetraacetic Acid] | ≤5 ppm | 0.179 mAU*min | 0 mAU*min | 0.305 mAU*min | 83 ppm | 169% | 85 ppm | 173% | 89 ppm | 182% | 0 | 0 | 0 | 20 | 0 | I (Degree of irritation 0-0.1: Grade I (unstimulated)) | 0 | 0 | 0 | 20 | Degree of irritation ([4]; content 0.5 wt %): 0; Grade for skin irritation ([4]; content 0.5 wt %): I (Degree of irritation 0-0.1: Grade I (unstimulated)); Test result (number of subject) (+) ([4]; content 1.0 wt %): 0; Test result (number of subject) (++) ([4]; content 1.0 wt %): 0; Test result (number of subject) (±) ([4]; content 1.0 wt %): 1; Test result (number of subject) (−) ([4]; content 1.0 wt %): 19; Degree of irritation ([4]; content 1.0 wt %): 0.05; Grade for skin irritation ([4]; content 1.0 wt %): I (Degree of irritation 0-0.1: Grade I (unstimulated)); Arsenic (As) Adsorption amount ([5]; content 0.5% aqueous solution): 41 ppm; Arsenic (As) Adsorption rate ([5]; content 0.5%): 164%; Arsenic (As) Adsorption amount ([5]; content 1.0% aqueous solution): 46 ppm; Arsenic (As) Adsorption rate ([5]; content 1.0%): 184%; Arsenic (As) Adsorption amount ([5]; content 2.0% aqueous solution): 53 ppm; Arsenic (As) Adsorption rate ([5]; content 2.0%): 212%; Cadmium (Cd) Adsorption amount ([6]; content 0.5% aqueous solution): 60 ppm; Cadmium (Cd) Adsorption rate ([6]; content 0.5%): 146%; Cadmium (Cd) Adsorption amount ([6]; content 1.0% aqueous solution): 66 ppm; Cadmium (Cd) Adsorption rate ([6]; content 1.0%): 161%; Cadmium (Cd) Adsorption amount ([6]; content 2.0% aqueous solution): 74 ppm; Cadmium (Cd) Adsorption rate ([6]; content 2.0%): 180%
